Assay results published in US20050037989A1, “Inhibition of gene function by delivery of polynucleotide-based gene expression inhibitors to mammalian cells in vivo” (priority 2001, published 2005).
d = 2'-deoxy (DNA); r = 2'-OH (RNA)

Experiments:
[1] = system: mouse HMG CoA reductase mRNA; assay: Serum triglyceride levels after tail vein injection of siRNA against HMG CoA reductase; format: in vivo, Apoetm1Unc mice; settings: for Triglyceride levels: absorbance at 520 nm
Protocol: Group A (series2) mice (5 mice) were each injected with 50 μg of an siRNA directed against mouse HMG CoA reductase mRNA. Group B (Series 1) mice (5 mice) were an uninjected control group. Group A and Group B animals were bled 7 days before, 2 days after, 4 days after, and 7 days after the injection. Serum samples were stored at −20° C. until all timepoints had been collected. Each group's serum samples from a given time-point were pooled prior to the triglyceride assays. Triglyceride assays were performed in quintuplicate.
A total of 50 μg of siRNA-HMGCR was dissolved in 2.2 ml Ringer's solution (147 mM NaCl, 4 mM KCl, 1.13 mM CaCl2), and injected into the tail vein of ApoE (−/−) mice over 7-12 seconds. Control mice were not injected and are referred to here as naive. Each mouse was bled from the retro-orbital sinus at various times prior to and after injection. Cells and clotting factors were pelleted from the blood to obtain serum. The serum triglyceride levels were then assayed by a enzymatic, colorimetric assay using the Infinity Triglyceride Reagent (Sigma Co.).
Triglyceride assays. Serum samples were diluted 1:100 in the Infinity Triglyceride Reagent (2 μl in 200 μl) in a clear, 96-well plate. Each assay plate was then incubated at 37° C. for five minutes, removed and allowed to cool to room temperature. Absorbance was measured at 520 nm using a SpectraMax Plus plate reader (Molecular Devices, Inc). Background absorbance (no serum added) was subtracted from each reading and the resulted data was plotted versus timepoint.

[2] = system: HMGCR mRNA in primary hepatocytes; assay: HMGCR mRNA in primary hepatocytes cultured with anti-HMGCR siRNA and/or atorvastatin (qPCR); format: cell-based, C57B6 mice; settings: siRNA alone, 24 hours
Protocol: qPCR assays. Quantitative, real-time PCR was performed using the Bio-Rad icycler system and iCycler reagents as recommended by the manufacturer. The primers used to amplify HMGCR sequences were SEQ ID 17 and SEQ ID 31.
Total RNA from these cells was isolated and transcribed into cDNA using an oligo-dT primer and reverse transcriptase. Subsequently, HMGCR levels were assayed using quantitative, real-time PCR.

siRNA-HMGCR: annealed oligomers SEQ ID 25 and SEQ ID 26, positions 2324-2344 of murine HMG CoA reductase reading frame (Examples 16, 18) (chain 1 ACAUUGUCACUGCUAUCUATT; chain 2 UAGAUAGCAGUGACAAUGUTT; sugars from the 5' end r19 d2, backbone not given here; listed as Mus musculus)
triglyceride levels (in words) ([1]; 50 μg siRNA tail vein, after 7 days): returned to normal levels | triglyceride levels reduced ([1]; 50 μg siRNA tail vein, after two days): 62% | triglyceride levels reduced ([1]; 50 μg siRNA tail vein, second value, printed again as after two days): 56% | Triglyceride levels ([1]; day +2, pooled serum): 0.082 ± 0.006 | Triglyceride levels ([1]; day +4, pooled serum): 0.095 ± 0.005 | Triglyceride levels ([1]; day +7, pooled serum): 0.189 ± 0.012 | Triglyceride levels ([1]; day −7 (before injection), pooled serum): 0.218 ± 0.008 | HMGCR mRNA, % of that seen in control cells [2]: approximately 20%
